Test results: US10227331B2 (priority 2015, dated 2019)

What was measured:
[1] = tested on: Serratia marcescens expressing IMP-1 (CL5741); assay type: cell-based; details: with imipenem 1 μg/ml; 95% inhibition of bacterial growth
Method in brief: (§1)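 Clinical strains grown overnight on blood agar, then diluted 1:100 in 1.1× CAMHB and exposed to test compound with imipenem at 1 μg/ml. Incubation was 22–24 h at 35° C; growth was read by absorbance to find the compound concentration restoring imipenem susceptibility.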

[2] = tested on: Escherichia coli expressing NDM-1 (CLB30005, CLB30016); assay type: cell-based; details: with imipenem 1 μg/ml; 95% inhibition of bacterial growth
Method in brief: as §1

[3] = tested on: Klebsiella pneumoniae expressing VIM-1 (IHMA599644); assay type: cell-based; details: with imipenem 1 μg/ml; 95% inhibition of bacterial growth
Method in brief: as §1

IMP-1 = IMP-1 (Serratia marcescens, UniProt P52699); experiment: biochemical; assay type: biochemical; details: CCF2-FA substrate, 2 hours at 25° C; read-out: IMP-1 IC50
Chain of IMP-1 (P52699 whole entry, looked up, species assumed): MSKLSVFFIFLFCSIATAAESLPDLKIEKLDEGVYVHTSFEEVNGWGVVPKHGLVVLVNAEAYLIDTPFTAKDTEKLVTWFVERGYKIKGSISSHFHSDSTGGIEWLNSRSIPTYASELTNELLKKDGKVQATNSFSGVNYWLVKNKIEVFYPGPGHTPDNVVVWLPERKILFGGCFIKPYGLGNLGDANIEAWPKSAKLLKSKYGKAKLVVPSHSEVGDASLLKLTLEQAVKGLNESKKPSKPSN
Method in brief: (§2)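 Fluorescence assay of metallo-β-lactamase activity using CCF2-FA, a cephalosporin-linked 7-hydroxycoumarin–fluorescein substrate. Inhibitor, enzyme and substrate were incubated together for 2 hours at 25° C. IC50 came from a 4-parameter fit of inhibition versus inhibitor concentration.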

NDM-1 = NDM-1 (Klebsiella pneumoniae, UniProt C7C422); experiment: biochemical; assay type: biochemical; details: CCF2-FA substrate, 2 hours at 25° C; read-out: NDM-1 IC50
Chain of NDM-1 (C7C422 whole entry, looked up, species assumed): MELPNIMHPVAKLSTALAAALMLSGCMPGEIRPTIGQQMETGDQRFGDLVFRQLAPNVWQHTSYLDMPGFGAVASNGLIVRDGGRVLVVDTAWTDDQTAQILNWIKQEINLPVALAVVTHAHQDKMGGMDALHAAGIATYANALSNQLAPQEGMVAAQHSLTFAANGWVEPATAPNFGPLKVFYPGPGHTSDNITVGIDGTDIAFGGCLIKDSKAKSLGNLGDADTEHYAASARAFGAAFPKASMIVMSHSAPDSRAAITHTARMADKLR
Method in brief: as §2

[4] = tested on: P. aeruginosa expressing IMP-1, efflux+ (MB9798); assay type: cell-based, Pseudomonas aeruginosa; details: for P. aeruginosa expressing IMP-1, efflux+ (MB9798) MITC95: imipenem at 2 μg/mL, in the presence of a class A, C, D serine β-lactamase inhibitor closely related to relebactam; for Efflux ratio: ratio MITC95 PA_9798/MITC95 PA_9799
Description: (§3) The strain background is Pseudomonas aeruginosa PAO1.

VIM-1 = VIM-1 (Pseudomonas aeruginosa (strain ATCC 15692 / DSM 22644 / CIP 104116 / JCM 14847 / LMG 12228 / 1C / PRS 101 / PAO1), UniProt A0A0F7KYQ8); experiment: biochemical; details: CCF2-FA substrate, 2 hours at 25° C
Method in brief: as §2

[5] = tested on: P. aeruginosa expressing IMP-1, efflux− (MB9799); experiment: Efflux: concentration of MBL inhibitor which restores susceptibility to imipenem; assay type: cell-based, Pseudomonas aeruginosa; details: imipenem at 2 μg/mL, in the presence of a class A, C, D serine β-lactamase inhibitor closely related to relebactam
Description: as §3

Row | SMILES | Serratia marcescens expressing IMP-1 (CL5741) MITC95 [1] [µM] | Escherichia coli expressing NDM-1 (CLB30016) MITC95 [2] [µM] | Klebsiella pneumoniae expressing VIM-1 (IHMA599644) MITC95 [3] [µM] | IC50 (IMP-1) [nM] | IC50 (NDM-1) [nM] | P. aeruginosa expressing IMP-1, efflux+ (MB9798) MITC95 [4] [µM] | Efflux ratio [4] | IC50 (VIM-1) [nM] | P. aeruginosa expressing IMP-1, efflux− (MB9799) MITC95 [5] [µM]
1 | Nc1nc2cccc(-c3ccc(S(=O)(=O)C4CNC4)c(S(N)(=O)=O)c3-c3nn[nH]n3)n2n1 [Example 214, 3-(2-amino-[1,2,4]triazolo[1,5-a]pyridin-5-yl)-6-(azetidin-3-ylsulfonyl)-2-(2H-tetrazol-5-yl)benzenesulfonamide] | 3.125 | 3.125 | 6.25 | 3.32 | 0.139 | 3.125 | 2.00 | 0.221 | 1.563
2 | Nc1nc2ccc(-c3ccc(S(=O)(=O)C4CNC4)c(S(N)(=O)=O)c3-c3nn[nH]n3)cn2n1 [Example 215, 3-(2-amino-[1,2,4]triazolo[1,5-a]pyridin-6-yl)-6-(azetidin-3-ylsulfonyl)-2-(2H-tetrazol-5-yl)benzenesulfonamide] | 3.125 | 3.125 | 6.25 | 2.19 | 0.239 | 6.25 | 2.00 | 0.298 | 3.125
3 | Nc1nc2c(-c3ccc(S(=O)(=O)C4CNC4)c(S(N)(=O)=O)c3-c3nn[nH]n3)cccn2n1 [Example 216, 3-(2-amino-[,2,4]triazolo[1,5-a]pyridin-8-yl)-6-(azetidin-3-ylsulfonyl)-2-(2H-tetrazol-5-yl)benzenesulfonamide] | 3.125 | 12.5 | 6.25 | 1.66 | 0.102 | 6.25 | 4.00 | 0.151 | 1.563
4 | Nc1nc2cc(-c3ccc(S(=O)(=O)C4CNC4)c(S(N)(=O)=O)c3-c3nn[nH]n3)ccn2n1 [Example 217, 3-(2-amino-[1,2,4]triazolo[1,5-a]pyridin-7-yl)-6-(azetidin-3-ylsulfonyl)-2-(2H-tetrazol-5-yl) benzenesulfonamide] | 3.125 | 6.25 | 6.25 | 3.81 | 1.49 | 12.5 | 8.00 | 0.313 | 1.563
5 | NS(=O)(=O)c1c(S(=O)(=O)C2CNC2)ccc(C2=CCS(=O)(=O)CC2)c1-c1nn[nH]n1 [Example 218, 6-(azetidin-3-ylsulfonyl)-3-(1,1-dioxido-3,6-dihydro-2H-thiopyran-4-yl)-2-(2H-tetrazol-5-yl) benzenesulfonamide] | 1.563 | 0.3906 | 3.125 | 3.55 | 1.75 | 12.5 | 8.00 | 2.23 | 1.563
6 | Nc1ncccc1-c1ccc(S(=O)(=O)C2CNC2)c(S(N)(=O)=O)c1-c1nn[nH]n1 [Example 219, 3-(2-aminopyridin-3-yl)-6-(azetidin-3-ylsulfonyl)-2-(2H-tetrazol-5-yl) benzenesulfonamide] | 0.6406 | 0.125 | 1.281 | 5.66 | 0.647 | 6.25 | 4.88 | 0.52 | 1.281
7 | NS(=O)(=O)c1c(S(=O)(=O)C2CNC2)ccc(-c2cccnc2N2CCOCC2)c1-c1nn[nH]n1 [Example 220, 6-(azetidin-3-ylsulfonyl)-3-(2-morpholinopyridin-3-yl)-2-(2H-tetrazol-5-yl) benzenesulfonamide] | 12.5 | 6.25 | 12.5 | 14.9 | 0.901 | 100 | 32.00 | 0.337 | 3.125
8 | N=C(N)Nc1ccccc1-c1ccc(S(=O)(=O)C2CNC2)c(S(N)(=O)=O)c1-c1nn[nH]n1 [Example 221, 4-(azetidin-3-ylsulfonyl)-2′-guanidino-2-(2H-tetrazol-5-yl)-[1,1′-biphenyl]-3-sulfonamide] | 12.5 | 6.25 | 12.5 | 44 | 5.13 | 50 | 16.00 | 6.95 | 3.125
9 | NS(=O)(=O)c1c(S(=O)(=O)C2CNC2)ccc(C2CCOCC2)c1-c1nn[nH]n1 [Example 222, 6-(azetidin-3-ylsulfonyl)-3-(tetrahydro-2H-pyran-4-yl)-2-(2H-tetrazol-5-yl)benzenesulfonamide] | 3.125 | 3.125 | 3.125 | 4.3 | 1.49 | 100 | 63.98 | 2.45 | 1.563
10 | Nc1cccc(-c2ccc(S(=O)(=O)C3CNC3)c(S(N)(=O)=O)c2-c2nn[nH]n2)n1 [Example 223, 3-(6-aminopyridin-2-yl)-6-(azetidin-3-ylsulfonyl)-2-(2H-tetrazol-5-yl)benzenesulfonamide] | 3.125 | 0.7813 | 6.25 | 10.2 | 2.51 | 6.25 | 2.00 | 3.16 | 3.125
11 | Nc1nccc(-c2ccc(S(=O)(=O)C3CNC3)c(S(N)(=O)=O)c2-c2nn[nH]n2)c1N [Example 224, 6-(azetidin-3-ylsulfonyl)-3-(2,3-diaminopyridin-4-yl)-2-(2H-tetrazol-5-yl)benzenesulfonamide] | 3.125 | 0.7813 | 3.125 | 2.58 | 0.618 | 3.125 | 2.00 | 1.29 | 1.563
12 | NCCS(=O)(=O)c1ccc(-c2cccc3nc(N)nn23)c(-c2nn[nH]n2)c1S(N)(=O)=O [Example 225, 3-(2-amino-[1,2,4]triazolo[1,5-a]pyridin-5-yl)-6-((2-aminoethyl)sulfonyl)-2-(2H-tetrazol-5-yl)benzenesulfonamide] | 1.563 | 1.563 | 3.125 | 1.97 | 0.164 | 3.125 | 2.00 | 0.229 | 1.563
13 | NS(=O)(=O)c1c(SC2CCNCC2)ccc(-c2ccc(C3CCNCC3)cc2)c1-c1nnn[nH]1 [Example 226, 4′-(piperidin-4-yl)-4-(piperidin-4-ylthio)-2-(1H-tetrazol-5-yl)-[1,1′-biphenyl]-3-sulfonamide] | 3.125 | 1.563 | 6.25 | 35.7 | 15.1 | 25 | 32.00 | 48.5 | 0.7813
